Our source for the Kd values is ChEMBL document CHEMBL3991601, “The target landscape of clinical kinase drugs” (Science, 2017).

Calls of active or inactive are those of the source. Rule as the data show it, for most assays here: actives have a measured Kd and inactives only a lower limit.

One test concerns the target Wee1-like protein kinase (Homo sapiens, UniProt P30291).
The target in test [1] is Serine/threonine-protein kinase 10 (Homo sapiens, UniProt O94804).
Test [2] concerns the target Calcium/calmodulin-dependent protein kinase type II subunit delta (Homo sapiens, UniProt Q13557).
The target in test [3] is DnaJ homolog subfamily A member 1 (Homo sapiens, UniProt P31689).
Sequence of DnaJ homolog subfamily A member 1 (P31689 whole entry): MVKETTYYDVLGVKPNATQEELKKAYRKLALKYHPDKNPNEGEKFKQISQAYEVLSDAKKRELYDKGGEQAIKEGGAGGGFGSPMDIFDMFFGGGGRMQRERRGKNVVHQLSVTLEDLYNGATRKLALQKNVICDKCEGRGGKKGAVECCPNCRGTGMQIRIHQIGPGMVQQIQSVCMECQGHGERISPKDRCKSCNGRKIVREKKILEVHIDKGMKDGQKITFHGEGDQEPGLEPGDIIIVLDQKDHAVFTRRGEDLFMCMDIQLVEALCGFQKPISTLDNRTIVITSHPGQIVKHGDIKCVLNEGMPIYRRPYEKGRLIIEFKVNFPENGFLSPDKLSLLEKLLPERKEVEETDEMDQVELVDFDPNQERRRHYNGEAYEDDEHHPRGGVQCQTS
Test [4] has as its target T1, General transcription and DNA repair factor IIH helicase subunit XPD (Homo sapiens, UniProt P18074).
T1 sequence (P18074 whole entry): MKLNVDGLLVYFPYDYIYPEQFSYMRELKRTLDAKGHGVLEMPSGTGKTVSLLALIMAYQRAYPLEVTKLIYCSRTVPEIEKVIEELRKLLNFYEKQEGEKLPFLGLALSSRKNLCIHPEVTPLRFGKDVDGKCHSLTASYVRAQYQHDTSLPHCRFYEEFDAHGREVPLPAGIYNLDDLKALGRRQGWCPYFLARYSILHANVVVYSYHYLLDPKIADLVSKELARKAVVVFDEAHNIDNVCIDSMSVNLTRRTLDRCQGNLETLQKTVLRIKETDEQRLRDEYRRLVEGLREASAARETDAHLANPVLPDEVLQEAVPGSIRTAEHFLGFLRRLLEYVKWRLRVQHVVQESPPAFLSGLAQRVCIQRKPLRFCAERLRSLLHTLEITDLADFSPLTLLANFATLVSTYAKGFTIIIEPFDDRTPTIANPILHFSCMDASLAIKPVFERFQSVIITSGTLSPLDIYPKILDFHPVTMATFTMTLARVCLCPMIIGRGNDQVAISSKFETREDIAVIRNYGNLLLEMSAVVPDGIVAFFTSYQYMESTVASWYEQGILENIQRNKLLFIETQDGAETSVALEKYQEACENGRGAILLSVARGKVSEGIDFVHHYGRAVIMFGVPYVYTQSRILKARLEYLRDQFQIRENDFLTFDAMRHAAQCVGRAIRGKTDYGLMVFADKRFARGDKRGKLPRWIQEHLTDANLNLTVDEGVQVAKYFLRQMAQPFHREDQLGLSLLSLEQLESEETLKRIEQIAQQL
To be noted: read-out: Kd apparent; k-562, colo 205, sk-n-be(2) and mv-4-11.

Test [5] concerns the target Serine/threonine-protein kinase N1 (Homo sapiens, UniProt Q16512).
Test [6] has as its target Serine/threonine-protein kinase MRCK alpha (Homo sapiens, UniProt Q5VT25).
For test [7], the target named is Serine/threonine-protein kinase PAK 2 (Homo sapiens, UniProt Q13177).
Sequence of Serine/threonine-protein kinase PAK 2 (Q13177 whole entry): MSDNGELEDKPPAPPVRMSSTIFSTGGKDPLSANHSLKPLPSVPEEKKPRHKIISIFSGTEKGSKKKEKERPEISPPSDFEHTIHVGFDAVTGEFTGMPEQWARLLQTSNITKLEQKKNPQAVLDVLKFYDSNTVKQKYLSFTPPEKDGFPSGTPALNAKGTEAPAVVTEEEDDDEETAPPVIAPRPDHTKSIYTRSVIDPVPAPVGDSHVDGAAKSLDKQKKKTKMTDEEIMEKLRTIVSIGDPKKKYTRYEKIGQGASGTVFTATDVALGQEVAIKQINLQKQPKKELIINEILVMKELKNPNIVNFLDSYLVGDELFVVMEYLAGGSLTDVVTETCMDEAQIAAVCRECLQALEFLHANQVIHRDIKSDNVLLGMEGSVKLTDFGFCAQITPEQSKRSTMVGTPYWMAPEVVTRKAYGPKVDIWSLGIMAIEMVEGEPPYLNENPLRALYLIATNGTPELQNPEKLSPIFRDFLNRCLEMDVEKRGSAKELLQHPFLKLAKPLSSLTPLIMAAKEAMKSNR
The target of test [8] is T2, Structural maintenance of chromosomes protein 1A (Homo sapiens, UniProt Q14683).
T2 sequence (Q14683 whole entry): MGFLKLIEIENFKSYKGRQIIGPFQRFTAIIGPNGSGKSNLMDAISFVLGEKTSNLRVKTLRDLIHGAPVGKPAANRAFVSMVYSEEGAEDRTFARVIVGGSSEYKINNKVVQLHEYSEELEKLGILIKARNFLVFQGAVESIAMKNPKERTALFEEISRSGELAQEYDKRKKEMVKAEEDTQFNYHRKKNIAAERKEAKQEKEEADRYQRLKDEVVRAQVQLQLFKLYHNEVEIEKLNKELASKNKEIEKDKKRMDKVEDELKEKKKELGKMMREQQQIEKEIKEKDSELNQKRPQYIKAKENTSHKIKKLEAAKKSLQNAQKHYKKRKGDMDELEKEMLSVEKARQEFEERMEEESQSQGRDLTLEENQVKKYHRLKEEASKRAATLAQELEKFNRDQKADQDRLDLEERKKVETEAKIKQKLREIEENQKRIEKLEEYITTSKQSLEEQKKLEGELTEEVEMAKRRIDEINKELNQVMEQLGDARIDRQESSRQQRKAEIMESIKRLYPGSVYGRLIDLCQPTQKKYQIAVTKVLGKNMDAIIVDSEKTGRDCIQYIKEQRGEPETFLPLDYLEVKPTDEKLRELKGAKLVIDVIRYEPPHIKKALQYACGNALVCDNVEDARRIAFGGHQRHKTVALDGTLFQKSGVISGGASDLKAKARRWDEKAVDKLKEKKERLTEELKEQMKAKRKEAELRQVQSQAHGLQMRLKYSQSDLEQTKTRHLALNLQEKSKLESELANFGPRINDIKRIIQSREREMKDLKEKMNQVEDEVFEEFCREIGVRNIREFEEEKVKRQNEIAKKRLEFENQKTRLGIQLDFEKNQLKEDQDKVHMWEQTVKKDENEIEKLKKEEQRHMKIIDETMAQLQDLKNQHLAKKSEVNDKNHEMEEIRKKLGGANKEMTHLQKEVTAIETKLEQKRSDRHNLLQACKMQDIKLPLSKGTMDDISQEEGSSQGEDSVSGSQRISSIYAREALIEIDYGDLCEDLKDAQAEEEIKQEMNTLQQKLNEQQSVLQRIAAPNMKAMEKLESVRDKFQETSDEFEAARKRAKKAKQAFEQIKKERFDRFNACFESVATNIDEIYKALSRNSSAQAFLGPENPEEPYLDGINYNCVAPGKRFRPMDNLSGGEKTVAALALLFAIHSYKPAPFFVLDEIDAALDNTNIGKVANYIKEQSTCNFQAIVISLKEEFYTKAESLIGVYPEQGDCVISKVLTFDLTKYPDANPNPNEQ

The target of a further test is T3, TGF-beta receptor type-1 (Homo sapiens, UniProt P36897).
T3 sequence (P36897 whole entry): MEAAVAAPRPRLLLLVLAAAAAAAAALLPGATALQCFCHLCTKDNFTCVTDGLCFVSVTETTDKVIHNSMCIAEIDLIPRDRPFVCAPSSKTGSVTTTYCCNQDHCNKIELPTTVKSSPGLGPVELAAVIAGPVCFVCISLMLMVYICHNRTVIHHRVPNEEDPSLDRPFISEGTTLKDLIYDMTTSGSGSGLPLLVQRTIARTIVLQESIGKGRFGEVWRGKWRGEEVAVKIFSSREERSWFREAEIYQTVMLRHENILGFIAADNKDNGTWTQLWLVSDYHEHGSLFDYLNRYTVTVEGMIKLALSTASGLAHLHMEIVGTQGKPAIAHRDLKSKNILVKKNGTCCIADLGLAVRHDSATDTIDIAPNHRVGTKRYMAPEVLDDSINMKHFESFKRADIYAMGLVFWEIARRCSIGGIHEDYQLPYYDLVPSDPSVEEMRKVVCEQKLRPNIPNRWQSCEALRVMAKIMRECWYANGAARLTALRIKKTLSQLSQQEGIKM
Also: in the data inactive means no Kd found up to 30 µM.

Sequence of Serine/threonine-protein kinase N1 (Q16512 whole entry): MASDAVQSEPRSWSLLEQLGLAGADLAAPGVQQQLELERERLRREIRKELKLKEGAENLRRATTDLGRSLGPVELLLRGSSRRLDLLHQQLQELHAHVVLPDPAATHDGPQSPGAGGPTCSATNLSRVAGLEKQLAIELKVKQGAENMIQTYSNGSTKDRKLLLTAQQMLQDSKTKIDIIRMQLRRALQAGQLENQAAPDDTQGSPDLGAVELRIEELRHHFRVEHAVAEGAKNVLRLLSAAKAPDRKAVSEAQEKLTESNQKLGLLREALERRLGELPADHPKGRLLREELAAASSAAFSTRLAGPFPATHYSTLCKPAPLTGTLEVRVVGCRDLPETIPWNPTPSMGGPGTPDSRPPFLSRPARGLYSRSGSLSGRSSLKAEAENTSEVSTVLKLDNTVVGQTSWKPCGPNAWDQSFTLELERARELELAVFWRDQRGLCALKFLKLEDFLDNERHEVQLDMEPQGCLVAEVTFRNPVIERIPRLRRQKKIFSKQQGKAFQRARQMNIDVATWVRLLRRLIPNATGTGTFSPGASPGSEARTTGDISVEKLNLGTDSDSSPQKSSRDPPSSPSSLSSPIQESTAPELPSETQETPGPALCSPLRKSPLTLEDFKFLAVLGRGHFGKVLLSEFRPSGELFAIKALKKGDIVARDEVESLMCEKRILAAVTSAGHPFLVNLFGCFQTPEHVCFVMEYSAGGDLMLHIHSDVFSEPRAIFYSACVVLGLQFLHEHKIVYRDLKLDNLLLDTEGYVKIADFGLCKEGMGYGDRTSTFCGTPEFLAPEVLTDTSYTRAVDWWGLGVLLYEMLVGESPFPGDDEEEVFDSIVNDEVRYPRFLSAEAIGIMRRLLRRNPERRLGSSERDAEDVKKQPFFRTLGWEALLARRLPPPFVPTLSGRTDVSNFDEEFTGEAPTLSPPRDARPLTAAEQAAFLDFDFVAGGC
Sequence of Serine/threonine-protein kinase MRCK alpha (Q5VT25 whole entry): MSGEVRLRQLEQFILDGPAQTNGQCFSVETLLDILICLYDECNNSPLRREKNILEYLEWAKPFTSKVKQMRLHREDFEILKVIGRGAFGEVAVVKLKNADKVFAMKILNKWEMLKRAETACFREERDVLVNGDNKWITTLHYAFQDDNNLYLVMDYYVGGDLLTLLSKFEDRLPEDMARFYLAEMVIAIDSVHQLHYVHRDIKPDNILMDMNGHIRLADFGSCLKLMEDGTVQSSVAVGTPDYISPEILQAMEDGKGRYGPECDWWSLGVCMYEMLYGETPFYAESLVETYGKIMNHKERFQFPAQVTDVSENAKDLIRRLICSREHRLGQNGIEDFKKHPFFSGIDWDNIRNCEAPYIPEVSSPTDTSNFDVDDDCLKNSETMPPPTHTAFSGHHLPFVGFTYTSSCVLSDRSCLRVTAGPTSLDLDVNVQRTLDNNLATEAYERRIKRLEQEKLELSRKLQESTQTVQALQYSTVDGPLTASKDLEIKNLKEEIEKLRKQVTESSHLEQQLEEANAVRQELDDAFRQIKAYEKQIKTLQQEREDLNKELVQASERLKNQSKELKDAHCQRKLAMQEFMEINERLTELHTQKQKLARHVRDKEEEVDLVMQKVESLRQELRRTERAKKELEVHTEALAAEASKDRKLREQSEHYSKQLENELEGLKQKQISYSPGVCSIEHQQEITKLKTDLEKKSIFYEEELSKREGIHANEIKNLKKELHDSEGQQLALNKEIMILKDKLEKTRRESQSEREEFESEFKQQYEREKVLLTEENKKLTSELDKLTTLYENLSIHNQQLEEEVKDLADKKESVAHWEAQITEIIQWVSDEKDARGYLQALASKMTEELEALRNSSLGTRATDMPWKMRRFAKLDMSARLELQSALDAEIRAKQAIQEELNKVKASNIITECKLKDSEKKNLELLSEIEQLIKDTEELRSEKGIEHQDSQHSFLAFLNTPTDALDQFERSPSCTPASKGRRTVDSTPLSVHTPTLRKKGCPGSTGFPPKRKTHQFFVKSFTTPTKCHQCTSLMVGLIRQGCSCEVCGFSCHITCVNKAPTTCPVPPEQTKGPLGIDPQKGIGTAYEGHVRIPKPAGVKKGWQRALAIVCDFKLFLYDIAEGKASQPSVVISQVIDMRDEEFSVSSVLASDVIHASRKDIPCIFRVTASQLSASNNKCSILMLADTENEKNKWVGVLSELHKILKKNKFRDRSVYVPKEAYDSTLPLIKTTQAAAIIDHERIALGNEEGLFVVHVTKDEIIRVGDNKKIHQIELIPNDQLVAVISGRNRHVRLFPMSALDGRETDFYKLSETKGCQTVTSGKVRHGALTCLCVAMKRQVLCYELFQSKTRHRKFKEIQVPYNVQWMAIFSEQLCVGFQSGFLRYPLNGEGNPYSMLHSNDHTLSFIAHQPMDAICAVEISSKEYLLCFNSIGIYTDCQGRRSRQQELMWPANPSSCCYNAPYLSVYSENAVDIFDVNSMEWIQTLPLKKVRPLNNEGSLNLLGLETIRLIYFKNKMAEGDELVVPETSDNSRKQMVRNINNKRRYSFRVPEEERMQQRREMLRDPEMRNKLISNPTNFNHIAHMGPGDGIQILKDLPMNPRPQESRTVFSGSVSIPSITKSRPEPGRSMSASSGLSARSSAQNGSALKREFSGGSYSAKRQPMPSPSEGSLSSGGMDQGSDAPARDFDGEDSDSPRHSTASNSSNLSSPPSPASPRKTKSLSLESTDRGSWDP
Sequence of Serine/threonine-protein kinase 10 (O94804 whole entry): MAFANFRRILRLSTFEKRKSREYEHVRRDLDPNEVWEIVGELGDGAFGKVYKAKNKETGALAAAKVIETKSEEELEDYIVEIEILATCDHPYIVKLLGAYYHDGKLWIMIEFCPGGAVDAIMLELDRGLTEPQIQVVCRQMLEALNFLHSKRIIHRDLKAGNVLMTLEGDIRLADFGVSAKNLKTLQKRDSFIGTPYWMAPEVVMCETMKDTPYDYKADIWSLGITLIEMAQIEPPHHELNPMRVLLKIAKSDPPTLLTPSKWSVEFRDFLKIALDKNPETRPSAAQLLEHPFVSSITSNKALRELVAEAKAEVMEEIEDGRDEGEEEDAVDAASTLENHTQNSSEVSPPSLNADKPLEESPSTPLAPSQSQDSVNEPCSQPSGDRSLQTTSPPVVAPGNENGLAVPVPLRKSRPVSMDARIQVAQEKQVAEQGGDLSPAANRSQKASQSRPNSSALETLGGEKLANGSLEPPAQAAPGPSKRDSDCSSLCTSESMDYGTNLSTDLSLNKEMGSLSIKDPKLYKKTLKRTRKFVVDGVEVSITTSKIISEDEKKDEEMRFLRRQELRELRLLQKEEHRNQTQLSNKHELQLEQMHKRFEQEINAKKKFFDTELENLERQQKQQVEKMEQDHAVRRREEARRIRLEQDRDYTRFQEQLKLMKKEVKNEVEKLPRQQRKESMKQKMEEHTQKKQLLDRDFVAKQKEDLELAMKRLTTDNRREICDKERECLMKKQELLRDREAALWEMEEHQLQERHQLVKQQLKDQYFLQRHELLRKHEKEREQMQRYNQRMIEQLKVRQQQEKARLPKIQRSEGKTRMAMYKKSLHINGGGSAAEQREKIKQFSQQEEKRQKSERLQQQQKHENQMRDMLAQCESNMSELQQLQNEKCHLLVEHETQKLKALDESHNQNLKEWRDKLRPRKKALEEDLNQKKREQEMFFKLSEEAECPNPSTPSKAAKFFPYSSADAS
Sequence of Calcium/calmodulin-dependent protein kinase type II subunit delta (Q13557 whole entry): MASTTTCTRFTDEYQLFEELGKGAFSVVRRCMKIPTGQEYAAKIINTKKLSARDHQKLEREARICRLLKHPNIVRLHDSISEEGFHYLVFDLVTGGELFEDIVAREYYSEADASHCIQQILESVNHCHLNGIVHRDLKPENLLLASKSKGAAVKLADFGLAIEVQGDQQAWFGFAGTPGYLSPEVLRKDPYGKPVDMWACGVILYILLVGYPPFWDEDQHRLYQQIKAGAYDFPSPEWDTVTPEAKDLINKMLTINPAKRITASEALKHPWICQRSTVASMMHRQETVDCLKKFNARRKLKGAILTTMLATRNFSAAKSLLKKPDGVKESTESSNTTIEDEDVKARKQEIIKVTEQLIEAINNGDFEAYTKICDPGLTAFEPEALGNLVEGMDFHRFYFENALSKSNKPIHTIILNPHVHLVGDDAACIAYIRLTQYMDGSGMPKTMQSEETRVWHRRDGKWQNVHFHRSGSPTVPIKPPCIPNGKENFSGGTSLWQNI

For the compound `CC1(COc2ccc3c(c2)ncn3-c2ccc3cccc(N4CCC(N)CC4)c3n2)COC1` [CRENOLANIB], the Kd was > 30 µM (inactive) at Wee1-like protein kinase; 3.43 µM (active) in test [1]; 0.821 µM (active) in test [2]; > 30 µM (inactive) in test [3]; > 30 µM (inactive) in [4]; 0.165 µM (active) in [5]. Moreover, the Kd (in test [6]; in test [7]; in test [8]; at TGF-beta receptor type-1) was > 30 µM (inactive) throughout.

In the case of `Cn1c(=O)c(F)c(Nc2ccc(I)cc2F)c2c(=O)n(C[C@@H](O)CO)cnc21` [TAK-733], the Kd (at Wee1-like protein kinase; in test [1]; in test [2]; in test [3]; in test [4]; in test [5]) was > 30 µM (inactive) each time. The Kd (in test [6]; in [7]; in test [8]; on TGF-beta receptor type-1) was > 30 µM (inactive) in each case.

Consider `COc1cc2ncnc3c2cc1OCCCCCN(C)Cc1ccc(Br)cc1N3` [JNJ-26483327], for which the Kd at Wee1-like protein kinase was > 30 µM (inactive); in test [1] it was 45.1 µM (active); in [2], > 30 µM (inactive); in test [3], > 30 µM (inactive); in test [4], > 30 µM (inactive); in [5], > 30 µM (inactive). Also, the Kd (in [6]; in test [7]; in test [8]; at TGF-beta receptor type-1) was > 30 µM (inactive) throughout.

In the case of `COc1ccc2c(OCc3nnc4ccc(-c5ccccc5)nn34)ccnc2c1` [AMG-208], the Kd (on Wee1-like protein kinase; in test [1]; in test [2]; in test [3]; in test [4]; in test [5]) was > 30 µM (inactive) in each case. Further, the Kd (in [6]; in test [7]; in [8]; at TGF-beta receptor type-1) was > 30 µM (inactive) throughout.

Turning to `Cc1cc(-c2cc(OC(=O)c3ccccc3)ccc2Cl)cc2nnc(Nc3ccc(OCCN4CCCC4)cc3)nc12` [TG100-801], the Kd (on Wee1-like protein kinase; in test [1]; in [2]; in test [3]; in [4]; in test [5]) was > 30 µM (inactive) each time. Also, the Kd (in [6]; in test [7]; in test [8]; on TGF-beta receptor type-1) was > 30 µM (inactive) in each case.

For the compound `O=C(NC[C@H](O)CO)c1ccncc1Nc1ccc(I)cc1F` [PIMASERTIB], the Kd (on Wee1-like protein kinase; in [1]; in [2]; in [3]; in test [4]; in [5]) was > 30 µM (inactive) in each case. In addition, the Kd (in [6]; in test [7]; in [8]; at TGF-beta receptor type-1) was > 30 µM (inactive) throughout.

Turning to `CC[C@@](C)(Nc1ccnc(-c2c[nH]c3ncccc23)n1)C(=O)NCC(F)(F)F` [DECERNOTINIB], the Kd is > 30 µM (inactive) on Wee1-like protein kinase; 0.071 µM (active) in test [1]; 20.3 µM (active) in test [2]; > 30 µM (inactive) in test [3]; > 30 µM (inactive) in test [4]; 49.8 µM (active) in test [5]. The Kd was 0.561 µM (active) in [6], > 30 µM (inactive) in test [7], > 30 µM (inactive) in test [8] and > 30 µM (inactive) at TGF-beta receptor type-1.

`COc1cc2ncnc(Nc3ccc(O)cc3)c2cc1OC` [WHI-P131]: the Kd at Wee1-like protein kinase is > 30 µM (inactive); in test [1] it was 2.63 µM (active); in test [2], > 30 µM (inactive); in [3] it was > 30 µM (inactive); in test [4] it was > 30 µM (inactive); in test [5], > 30 µM (inactive). For the same compound, the Kd (in [6]; in test [7]; in [8]; at TGF-beta receptor type-1) was > 30 µM (inactive) throughout.

As to `S=C(NCc1ccc2c(c1)OCO2)N1CCN(c2ncnc3c2oc2ccccc23)CC1` [AMUVATINIB], the Kd (at Wee1-like protein kinase; in test [1]; in [2]; in test [3]; in test [4]; in test [5]) was > 30 µM (inactive) in each case. Moreover, the Kd (in [6]; in [7]; in [8]; on TGF-beta receptor type-1) was > 30 µM (inactive) throughout.

Turning to `Cc1ccc(C(=O)Nc2ccc(Oc3cc4cnn(C)c4cc3-c3cn[nH]c3)c(F)c2)c(=O)n1-c1ccc(F)cc1` [MERESTINIB], the Kd (on Wee1-like protein kinase; in test [1]; in test [2]; in test [3]; in test [4]; in test [5]) was > 30 µM (inactive) in each case. Further, the Kd (in [6]; in test [7]; in [8]; at TGF-beta receptor type-1) was > 30 µM (inactive) in each case.
